Measurements from patent US5721211A, “Compositions and methods for treating small cell and nonsmall cell lung cancers” (The George Washington University, priority 1993, dated 1998).
Ends that are not written are not given here.

Legend:
[1] = system: tumors of both SCLC and NSCLC types of lung cancer cells; set-up: species or system nude mice; settings: mouse, in vivo
[2] = system: lung cancer cells or plasma membranes derived therefrom; experiment: direct binding of labeled thymosin to lung cancer cells or plasma membranes; settings: 125I-Tyr labeled ligand
Text: Direct, i.e., noncompetitive, binding of a labeled ligand to intact cells or plasma membranes may be determined. […] These and other experiments not detailed here indicate that the thymosins may not have specific receptors. Palaszynski, E., Biochemical Studies on Thymosin α1, Ph.D. Thesis, George Washington University, Washington, D.C., 1981. It is thus all the more suprising and unexpected that certain thymosins have such profound inhibitory effects on the binding of VIP to its specific receptors and on the growth promoting effects of VIP in lung cancer cells.

[3] = system: NCI-H720 (lung carcinoid cancer cells); experiment: soft agar colonization, NCI-H720; format: cell-based; settings: 1 μM; for NCI-H720 (carcinoid) colonies: colonies greater than 50 μm, mean ± S.E. of 3
Experimental: (§1) The effects of THNα1 on the growth of lung cancer cell lines was studied. Single viable cells were plated in soft agar as previously described (Mahmoud, S., et al., Life Sci., 44:367 (1989)), and, after two weeks, the colonies were stained with 0.1% p-iodonitrotetrazolium violet.
(§2) The experimental conditions of Example 3 were repeated with NCI-H720 (lung carcinoid cancer cells) and NCI-N417 (SCLC lung cancer cells) cell lines. Colonies were counted as before.

[4] = system: NCI-N417 (SCLC lung cancer cells); experiment: soft agar colonization, NCI-N417; format: cell-based; settings: 1 μM; for (SCLC) N417 colonies: colonies greater than 50 μm, mean ± S.E. of 3
Experimental: as §1, §2

lung cancer cells = experiment: in vitro colonization of lung cancer cells (general statement); format: cell-based
Experimental: Candidate anti-lung cancer peptides and antibodies may be screened in vitro in a soft agar colonization assay such as that described by Mahmoud, S., et al., Life Sci., 44:367 (1989) which is herein incorporated by reference. In general, single viable lung cancer cells are plated in soft agar. After an appropriate growth period, such as 14 days, cell colonies may be stained with an appropriate cytochemical stain, and the stained cells viewed microscopically. Cytochemical stains are well known to those skilled in the art of histology.

[5] = system: NCI-H510 lung cancer cells; experiment: NCI-H510 growth in vivo; set-up: species or system nude mice; settings: 10 μg s.c. daily, week 4, mean of 3 tumors
Experimental: In a procedure substantially as set forth in Moody et al. (1993) supra, NCI-H510 lung cancer cells were injected into nude mice, and tumors formed after one week. The compounds listed in Table V below (produced as described above) were injected (100 microliters) subcutaneously daily. Tumors were measured at week 4.

[6] = system: NCI-H1299 lung cancer cells; experiment: 3H-arachidonic acid (AA) release; format: cell-based; settings: 1 μM; 4 determinations
Experimental: In a procedure substantially as set forth in Moody et al. (1993) supra, NCI-H1299 lung cancer cells were loaded with ^3 H-AA overnight, and after removal of free ^3 H-AA cells, were treated with increasing concentrations of THNα1(1-16)amide (Δ), THNα1 (.largecircle.) and THNα1amide (.box-solid.) (produced as described above). The mean value ± S.E. of 4 determinations is indicated; *,p<0.05; ** p<0.01.

Ac-SDAAVDTSSEITTKDLKEKKEVVEEAEN [THNα1, thymosin α1]
toxic side effects [1]: No toxic side effects were observed

(^125 I-Tyr)-labeled THNα1: 125I-Tyr labeled THNα1 used for direct binding analyses (SDAAVDTSSEITTKDLKEKKEVVEEAEN; ends and bridges not checked; also: 125I-Tyr label, place not given here; UniProt P06454 2-29, looked up)
direct (noncompetitive) binding affinity [2]: bind with poor affinity

thymosin β4 (SDKPDMAEIEKFDKSKLKKTETQEKNPLPSKETIEQEKQAGES; Thymosin beta-4; UniProt P62328 2-44, looked up) [THN β4, a 43-amino acid peptide, MW 4982]
N/No, NCI-H720 [3]: 0.93
NCI-H720 (carcinoid) colonies [3]: 68 ± 20
NCI-H720 (carcinoid) colonies ([3]; listed as THNβ4): did not influence colony number significantly
N/No, N417 [4]: 1.20
(SCLC) N417 colonies [4]: 240 ± 68
(SCLC) N417 colonies ([4]; listed as THNβ4): did not influence colony number significantly
colony formation of lung cancer cells in vitro (lung cancer cells): little effect

Ac-SDAAVDTSSEITTKDL-NH2 [THNα1-N16 (1-16) amide, Ac-Ser-Asp-Ala-Ala-Val-Asp-Thr-Ser-Ser-Glu-Ile-Thr-Thr-Lys-Asp- Leu-NH2]
Tumor volume [5]: 410 mm^3
Tumor volume ([5]; listed as THNα1-N16 (1-16)amide): strongly inhibit
3H-AA release [6]: significantly stimulate
